# Measured values taken from patent US7763658B2, “Treatment for cancers” (Synta Pharmaceuticals Corp., priority 2003, dated 2010).
# “Also recorded” adds a separate entry of the source.
# Tests used:
# 39SK normal fibroblast = experiment: In vitro cytotoxicity, MTS assay, 39SK; format: cell-based; conditions: Human normal fibroblast, 72 hours
# Protocol: (§1) All experiments were performed on exponentially growing cell culture.
# MES-SA/DX5 = experiment: Tumor cell growth inhibition, MTS assay, MES-SA/DX5; format: cell-based, human; conditions: protocol of Example 15, Table 2
# Protocol: (§2) The in vitro activity of the compounds was assessed in a selected set of human cancer cell lines.
# (§3) MES-SA, a model of uterine sarcoma, is sensitive to a number of chemotherapeutic agents, including Doxorubicin, Dactinomycin, Mitomycin C, paclitaxel and Bleomycin, but resistant to Vinblastine and Cisplatin. MES-SA/DX5 was established in the presence of increasing concentrations of Doxorubicin. […] Both MES-SA and MES-SA/Dx5 were purchased from ATCC (ATCC CRL-1976 and ATCC CRL-1977, respectively).
# (§4) All experiments were performed on exponentially growing cell culture. Cell densities were 2.5×10^4 cells/ml in all experiment except special.
# [1] = tested on: multi-drug resistant human uterine sarcoma MES-SA/DX5 tumors; experiment: MES-SA/DX5 tumors in nude mice; format: in vivo; conditions: 15 mg/kg intravenously, 3 times a week for 3 weeks
# Protocol: A supplemented media was prepared from 50% DMEM/Dulbecco Modified Eagle Medium (High Glucose), 50% RPMI 1640, 10% FBS/Fetal Bovine Serum (Hybridoma Tested; Sterile Filtered), 1% L-Glutamine, 1% Penicillin-Streptomycin, 1% MEM Sodium Pyruvate and 1% MEM Non-Essential Amino Acids. FBS was obtained from Sigma Chemical Co. and other ingredients were obtained from Invitrogen Life Technologies, USA). The supplemental media was warmed to 37° C. and 50 ml of media was added to a 175 cm^2 tissue culture flask.
# The cells used in the assay were multi-drug resistant MES-SA/DX-5 Human Uterine Sarcoma cells from the American Type Culture Collection. 1 vial of MES-SA/DX-5 cells from the liquid nitrogen frozen cell stock was removed. The frozen vial of cells was immediately placed into a 37° C. water bath and gently swirled until thawed. The freeze-vial was wiped with 70% ethanol and cells were immediately pipetted into the 175 cm^2 tissue culture flask containing supplemented media. […]
# The flask was washed with 10 ml of sterile room temperature phosphate buffered saline (PBS). […] The supernatant was aspirated and the cell pellet was resuspended in 10 ml of supplemented media and the cells were counted. […]
# The above procedure for trypsinizing and centrifuging the cells were followed. The supernatant was aspirated and the cell pellet was resuspended in 10 ml of sterile PBS and the cells were counted. […]
# [2] = tested on: MDR cell lines (MES-SA/DX5, HL-60/TX1000, Bowes/OV2); experiment: Tumor cell growth inhibition, summary over MDR cell lines; format: cell-based, human; conditions: for IC50: Homo sapiens, read-out: IC50 against the MDR cell lines
# Protocol: (§5) The in vitro activity of the compounds was assessed in a selected set of human cancer cell lines. Three pairs of tumor cell lines (non-resistant/resistant) were used to identify novel potent antitumor compounds which are capable of overcoming multi-drug resistance.
# (§6) HL-60, a model of myeloid leukemia, was obtained from ATCC (ATCC CCL-240); and HL60/TX1000 was isolated in vitro by subculturing HL-60 in progressively higher concentration of paclitaxel. HL-60/TX1000 cells over-express mdr-1 mRNA and p-glycoprotein (PCP), as determined by western blot and immunofluorescence labeling with antiPGP antibodies. The cells are cross-resistant to paclitaxel, Vincristine, Adriamycin, Etoposide and Doxorubicin.
# as §3
# (§7) Bowes is a melanoma cell line; and Bowes/OV2 is a Vincristine resistant Bowes melanoma cell line.
# as §4
# HL-60 = experiment: Tumor cell growth inhibition, MTS assay, HL-60; format: cell-based; conditions: Homo sapiens, 72 hours incubation
# Protocol: as §5, §6, §4
# [3] = tested on: normal cancer cell lines (MES-SA, HL-60, Bowes); experiment: Tumor cell growth inhibition, summary over normal cancer cell lines; format: cell-based; conditions: Homo sapiens, read-out: IC50 against normal cancer cell lines
# Protocol: as §5, §6, §3, §7, §4
# CEM (T-cell leukemia) = experiment: cells; format: cell-based; conditions: Homo sapiens, 72 h, read-out: In vitro Cytotoxicity IC50, CEM
# Protocol: as §1
# Bowes = experiment: Tumor cell growth inhibition, MTS assay, Bowes; format: cell-based; conditions: Homo sapiens, 72 hours incubation
# Protocol: as §5, §7, §4
# MES-SA = experiment: Tumor cell growth inhibition, MTS assay, MES-SA; format: cell-based; conditions: Homo sapiens, 72 hours incubation
# Protocol: as §2, §3, §4
SMILES,"IC50 compared with Compound (1), same multi-drug resistant cell lines [2]",IC50 [2],IC50 (HL-60),IC50 (CEM (T-cell leukemia)),IC50 (Bowes),IC50 (MES-SA),further results
CN(NC(=O)CC(=O)NN(C)C(=S)c1ccccc1)C(=S)c1ccccc1 [Compound (1)],–,–,–,–,–,–,IC50 (39SK normal fibroblast): > 10000 nM
CC(C(=O)NN1Cc2ccccc2C1=S)C(=O)NN1Cc2ccccc2C1=S [Compound (13)],–,–,–,–,–,–,IC50 (MES-SA/DX5): 0.05 µM
CCN(NC(=O)C(C)C(=O)NN(CC)C(=S)c1ccccc1)C(=S)c1ccccc1 [Compound (16)],–,–,–,–,–,–,"toxicity such as body weight suppression and behavior changes [1]: without any obvious toxicity; tumor growth / tumor size of MES-SA/DX5 compared with vehicle ([1]; FIG. 2): significantly reduced; also recorded: significantly inhibits the tumor growth; IC50 (MES-SA/DX5; Homo sapiens, MES-SA/Dx5): 0.05 µM"
CC(=O)O[C@H]1C(=O)[C@@]2(C)[C@H]([C@H](OC(=O)c3ccccc3)[C@]3(O)C[C@H](OC(=O)[C@H](O)[C@@H](NC(=O)c4ccccc4)c4ccccc4)C(C)=C1C3(C)C)[C@]1(OC(C)=O)CO[C@@H]1C[C@@H]2O [Paclitaxel],two to three orders of magnitude larger,5000 nM,0.002 µM,10 nM,0.005 µM,0.005 µM,IC50 [3]: 2 to 5 nM
CC[C@]1(O)C[C@H]2CN(CCc3c([nH]c4ccccc34)[C@@](C(=O)OC)(c3cc4c(cc3OC)N(C=O)[C@H]3[C@@](O)(C(=O)OC)[C@H](OC(C)=O)[C@]5(CC)C=CCN6CC[C@]43[C@@H]65)C2)C1 [Vincristine],two to three orders of magnitude larger,5000 nM,0.002 µM,5 nM,0.002 µM,0.004 µM,–
